Results taken from ChEMBL document CHEMBL1201862, “PubChem BioAssay data set” (2004).
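Following 48 hours of exposure in 96-well plates, responses at five concentrations were used to interpolate endpoints linearly. The concentration for 50% growth inhibition is given as GI50.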 The source made the active and inactive calls. No stated cut-off is given here; in the data, active = GI50 up to about 1.1 µM and inactive = higher.

What was measured:
Assay in all cases: growth of human tumour cells (NCI), 48 h
[1] = system: SK-OV-3
[2] = system: HT-29
[3] = system: NCI-H226
[4] = system: SF-268
[5] = system: UACC-257
[6] = system: T47D
[7] = system: HCT-15
[8] = system: MOLT-4
[9] = system: OVCAR-8
[10] = system: SF-295
[11] = system: TK-10
[12] = system: HOP-62
[13] = system: UACC-62
[14] = system: SF-539
[15] = system: HL-60
[16] = system: NCI-H23
[17] = system: BT-549
[18] = system: SNB-19
[19] = system: CCRF-CEM
[20] = system: SK-MEL-5

| SMILES | GI50 [1] | GI50 [2] | GI50 [3] | GI50 [4] | GI50 [5] | GI50 [6] | GI50 [7] [µM] | GI50 [8] | GI50 [9] | GI50 [10] | GI50 [11] | GI50 [12] | GI50 [13] | GI50 [14] | GI50 [15] | GI50 [16] | GI50 [17] | GI50 [18] | GI50 [19] | GI50 [20] |
| --- | --- | --- | --- | --- | --- | --- | --- | --- | --- | --- | --- | --- | --- | --- | --- | --- | --- | --- | --- | --- |
| Clc1ccc(Cl)c(SCCCN2CCNCC2)c1 | 15.1 µM (inactive) | 14.6 µM (inactive) | 18.3 µM (inactive) | 16.6 µM (inactive) | 11.7 µM (inactive) | 23.9 µM (inactive) | 18.7 | 17.1 µM (inactive) | 20.3 µM (inactive) | 17.8 µM (inactive) | 16.5 µM (inactive) | 18 µM (inactive) | 2.61 µM (inactive) | 27.5 µM (inactive) | 14.2 µM (inactive) | 19.4 µM (inactive) | 17.1 µM (inactive) | 16.9 µM (inactive) | 19.9 µM (inactive) | 15.2 µM (inactive) |
| N=C(N)NS(=O)(=O)c1ccc(NC(=O)c2ccc3nc4ccccc4c(Nc4ccc(S(N)(=O)=O)cc4)c3c2)cc1 | > 100 µM (inactive) | > 100 µM (inactive) | > 100 µM (inactive) | > 100 µM (inactive) | > 100 µM (inactive) | > 100 µM (inactive) | > 100 | > 100 µM (inactive) | > 100 µM (inactive) | > 100 µM (inactive) | > 100 µM (inactive) | > 100 µM (inactive) | > 100 µM (inactive) | > 100 µM (inactive) | > 100 µM (inactive) | > 100 µM (inactive) | > 100 µM (inactive) | > 100 µM (inactive) | > 100 µM (inactive) | > 100 µM (inactive) |
| c1ccc2c(c1)N=c1cc3c(cc1N2)=NC12CCCCC1CC1=C(CCCC1)N32 (stereo not given) | > 10 µM (inactive) | 3.18 µM (inactive) | 2.31 µM (inactive) | 4.55 µM (inactive) | 2.03 µM (inactive) | 3.94 µM (inactive) | 5.82 | 2.6 µM (inactive) | 3.21 µM (inactive) | 9.04 µM (inactive) | 5.02 µM (inactive) | 6.53 µM (inactive) | 3.32 µM (inactive) | 3.4 µM (inactive) | 3.04 µM (inactive) | 4.56 µM (inactive) | 2.61 µM (inactive) | 5.25 µM (inactive) | 2.12 µM (inactive) | 1.81 µM (inactive) |
